# Values of other authors as cited in patent US20090048319A1, “Method of Using a Micronutrient as Safener for a Triazole for Controlling Harmful Fungi” (priority 2006, published 2009).
# Test system: wheat
# Details: in vivo
smiles,measurement,value
"CC1(C)CC/C(=C\c2ccc(Cl)cc2)C1(O)Cn1cncn1 (stereo not shown) [triticonazole, (5E)-5-[(4-chlorophenyl)methylene]-2,2-dimethyl-1-(1H-1,2,4-triazol-1-ylmethyl)cyclopentanol]",negative effect on plant growth,strongly reduced longitudinal growth
